Consider eight compounds from ChEMBL document CHEMBL1201862, “PubChem BioAssay data set” (2004).

What all share (assay): NCI-60 cell line screen, 48 h
The test system of assay [1] is LOX IMVI.
In assay [2] the test system is MDA-MB-231.
For assay [3], the system named is CAKI-1.
Assay [4] relates to MDA-MB-435.
In assay [5] the test system is NCI-H460.
Assay [6] has as its system SK-OV-3.
Assay [7] has as its system SR.
Assay [8] relates to U-251.
The test system of assay [9] is ACHN.
Assay [10] concerns NCI/ADR-RES.
For assay [11], the system named is OVCAR-5.
In assay [12] the test system is SF-295.
Assay [13] has as its system HCT-15.
Assay [14] has as its system DU-145.
The subject of assay [15] is RPMI-8226.
Assay [16] relates to K562.
Assay [17] concerns MOLT-4.
The test system of assay [18] is SN12C.
For assay [19], the system named is UACC-62.
For assay [20], the system named is NCI-H226.

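Assay format: 96-well plates, 48-hour exposure. GI50 marks 50% less growth.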 The source made the active and inactive calls. Cut-off read from the data, not from the text of the source: active = GI50 up to about 1.1 µM and inactive = higher. Where only a bound is given, the exact number is not on record here.

In the case of `CC(=O)c1c2c(cc3c1CC1(Cc4cc5c(cc4C1)CCC5)C3)CCC2`, the GI50 in assay [1], in assay [2], in assay [3], in assay [4], in assay [5] and in [6] was > 100 µM (inactive) in each case. Moreover, the GI50 in assay [7], in assay [8], in assay [9], in assay [10], in assay [11] and in [12] was > 100 µM (inactive) in each case. The GI50 in assay [13] was more than 100 µM; in assay [14], > 100 µM (inactive); in [15], > 100 µM (inactive); in assay [16], > 100 µM (inactive); in assay [17] it was > 100 µM (inactive).

`COc1ccc(CCN2C(=O)CC34C=CC(CC3C2=O)O4)cc1OC` (stereo not given): the GI50 in assay [1], in assay [2], in assay [3], in [4], in assay [18] and in [6] was > 100 µM (inactive) throughout. Also, the GI50 in assay [7], in assay [8], in assay [9], in assay [10], in assay [11] and in [12] was > 100 µM (inactive) throughout. In addition, the GI50 is more than 100 µM in assay [13]; > 100 µM (inactive) in assay [19]; > 100 µM (inactive) in [14]; > 100 µM (inactive) in [15]; > 100 µM (inactive) in [16]; > 100 µM (inactive) in assay [17].

`O=[N+]([O-])c1ccc2nc(O)n[n+]([O-])c2c1`: the GI50 in assay [1], in assay [2], in [4], in assay [18], in assay [5] and in assay [6] was > 100 µM (inactive) each time. The GI50 in assay [7] was > 20.6 µM (inactive); in [8] it was > 100 µM (inactive); in assay [9], > 100 µM (inactive); in assay [10] it was > 100 µM (inactive); in assay [11] it was > 100 µM (inactive); in assay [20] it was > 100 µM (inactive). Also, the GI50 in assay [12] is > 100 µM (inactive); in [13], more than 100 µM; in assay [19] it was > 100 µM (inactive); in [14] it was > 100 µM (inactive); in assay [15] it was 97.9 µM (inactive); in assay [16] it was > 100 µM (inactive). The GI50 in assay [17] was > 100 µM (inactive).

In the case of `CCCCCCCCCCN(CCCCCCCCCC)C(=O)COc1c2cc(C(C)(C)C)cc1Cc1cc(C(C)(C)C)cc(c1OCC(=O)N(CCCCCCCCCC)CCCCCCCCCC)Cc1cc(C(C)(C)C)cc(c1OCC(=O)N(CCCCCCCCCC)CCCCCCCCCC)Cc1cc(C(C)(C)C)cc(c1OCC(=O)N(CCCCCCCCCC)CCCCCCCCCC)C2`, the GI50 in assay [1] was 10.2 µM (inactive); in assay [2] it was 17.6 µM (inactive); in [4] it was 12.9 µM (inactive); in assay [18], 13.4 µM (inactive); in assay [5] it was 12.6 µM (inactive); in assay [6], 14.4 µM (inactive). Moreover, the GI50 in [7] is 2.96 µM (inactive); in assay [8], 11.2 µM (inactive); in [9], 14.9 µM (inactive); in [10] it was 14.8 µM (inactive); in [11] it was 13.3 µM (inactive); in [20] it was 19.3 µM (inactive). In addition, the GI50 in assay [12] is 10.1 µM (inactive); in assay [13] it was 8.77 µM; in [19], 12.6 µM (inactive); in assay [14], 17.8 µM (inactive); in [16] it was 1.9 µM (inactive); in assay [17], 2.76 µM (inactive).

On to `Cc1ccc([N+](=O)[O-])cc1S(=O)(=O)Nc1ccc(C2=NNC(c3ccccc3)C2)cc1` (stereo not given), for which the GI50 in assay [2] was 15.3 µM (inactive); in assay [3], 11.9 µM (inactive); in [4], 17.1 µM (inactive); in assay [18], 19.5 µM (inactive); in [5] it was 15.1 µM (inactive); in assay [6] it was 15.5 µM (inactive). Moreover, the GI50 in assay [7] was 15.1 µM (inactive); in assay [9], 16.3 µM (inactive); in assay [10], 21.1 µM (inactive); in assay [11], 53.2 µM (inactive); in assay [20] it was 32.9 µM (inactive); in assay [12], 3.02 µM (inactive). Besides, the GI50 was 10.4 µM in [13]; 9.33 µM (inactive) in assay [19]; 27.9 µM (inactive) in assay [14]; 7.24 µM (inactive) in [15]; 6.73 µM (inactive) in assay [16]; 6.64 µM (inactive) in [17].

Regarding `CSc1cc(Cl)c(C(=O)Nc2ccccc2)cc1S(=O)(=O)n1ccnc1O`, the GI50 in assay [1], in assay [2], in assay [3], in [4], in assay [18] and in assay [5] was > 100 µM (inactive) in each case. Also, the GI50 in assay [6], in assay [7], in assay [8], in [9], in assay [10] and in assay [11] was > 100 µM (inactive) throughout. The GI50 in assay [13] is more than 100 µM; in [19], > 100 µM (inactive); in [14], > 100 µM (inactive); in assay [15], > 100 µM (inactive); in assay [16] it was > 100 µM (inactive); in assay [17], > 100 µM (inactive).

With `CCOC(=O)Cc1nnc2c(-c3ccccc3)nc3ccccc3n12`, the GI50 in assay [1] is 53.7 µM (inactive); in assay [2], 19.2 µM (inactive); in assay [4], > 100 µM (inactive); in [18], 53.8 µM (inactive); in assay [5], > 100 µM (inactive); in assay [6], 23.8 µM (inactive). Besides, the GI50 is > 100 µM (inactive) in [7]; 22.4 µM (inactive) in assay [8]; 19.8 µM (inactive) in assay [9]; 90.6 µM (inactive) in [10]; 63.5 µM (inactive) in assay [11]; > 100 µM (inactive) in assay [20]. Moreover, the GI50 in [13] is 56.2 µM; in assay [19], 44.7 µM (inactive); in [14], 33 µM (inactive); in assay [15], > 100 µM (inactive); in assay [16] it was > 100 µM (inactive); in [17] it was > 100 µM (inactive).

Regarding `Oc1cccc(-c2cc(O)c3cc4c(cc3n2)OCO4)c1`, the GI50 is 4.98 µM (inactive) in assay [1]; 1.92 µM (inactive) in [2]; 0.277 µM (active) in assay [4]; 3.03 µM (inactive) in assay [18]; 17.8 µM (inactive) in assay [5]; 1.41 µM (inactive) in assay [6]. For the same compound, the GI50 was 0.283 µM (active) in [7]; 1.43 µM (inactive) in [8]; 5.85 µM (inactive) in [9]; 1.31 µM (inactive) in [10]; > 100 µM (inactive) in assay [11]; 2.9 µM (inactive) in [20]. Besides, the GI50 is 5.74 µM (inactive) in assay [12]; 2.74 µM in assay [13]; 2.42 µM (inactive) in [19]; 0.302 µM (active) in [14]; 4.03 µM (inactive) in assay [15]; 0.505 µM (active) in assay [16]. Moreover, the GI50 in [17] was 3.77 µM (inactive).
